In BindingDB's records for doi:10.1016/j.bmcl.2005.08.114 (Wyeth Research, 2005):

Test: Reduction of viral RNA and protein in Huh7 cells containing HCV sub-genomic replicon

Compound: CCC[C@]1(CC(=O)O)OCCc2c1sc1c(C)cc(F)c(C#N)c21 [((R)-5-cyano-6-fluoro-8-methyl-1-propyl-3,4-dihydro-1H-benzo[4,5]thieno[2,3-c]pyran-1-yl)-acetic acid]
- EC50: 3.2 µM
